In patent US4080467A, “Pharmaceutical compositions comprising 1,3-dithiolan-2-ylidene malonate derivatives” (Nihon Nohyaku Co., Ltd., priority 1976, dated 1978):

Columns and labels:
[1] = tested on: Acute Liver Damage associated with Centrilobular Necrosis (carbon tetrachloride); experiment: Protective effect on acute liver damage associated with centrilobular necrosis (carbon tetrachloride model); assay type: in vivo, mice (four-week-old male, dd strain); details: 250 mg/kg oral 6 h before CCl4, average of 5 to 6 mice; for p-GPT (plasma glutamic-pyruvic transaminase activity): 24 h after CCl4, values over 1,000 regarded as 1,000; for Liver Damage Index: 0 normal, 2 slightly recognized, 4 clearly observable damage, 6 heavy damage
Source text: Carbon tetrachloride (CCl4) administration induces centrilobular necrosis of the liver associated with loss of diphosphopyridine nucleotide, hepatic glycogen, coenzyme A and increase in neutral fat. Release of several enzymes from the hepatocytes, and increases of enzyme activities in the plasma are recognized as the result of the damage of the liver. A suitable means for evaluating the degree of damage induced by CCl4 or the degree of protection afforded by drugs is to study the plasma glutamic-pyruvic transaminase (p-GPT) activity.
Method: The test compounds were dissolved or suspended in olive oil and administered orally at the dose of 250 mg/kg to the mice (Four-week-old male mice-dd strain). After 6 hours, CCl4 was administered orally (0.05 ml/kg as olive oil solution). Animals were killed 24 hours after CCl4 administration, and the liver was grossly observed. The plasma was obtained by centrifugation. Activities of p-GPT were determined by the method of Reitman and Frankel and expressed in Karmen units.
Score for liver damage was as follows: […]
4 Clearly observable damage
Each figure indicates average of 5 to 6 mice. Values of p-GPT over 1,000 Karmen unit regarded as 1,000 for calculation of average for convenience.

[2] = tested on: Chronic Liver Damage (thioacetamide); experiment: Therapeutic effect on chronic liver damage (thioacetamide model), BSP test; assay type: in vivo, rats (Sprague Dawley strain); details: 12 times TAA 100 mg/kg, then diet + 0.2% compound
Protocol: In the tests of this Example, TAA was repeatedly administered to animals to prepare test animals suffering from somewhat chronic liver damages, and then the present compounds were administered thereto to know whether or not the compounds were effective against chronic hepatitis.
The degree of the liver damage and the therapeutic effects of the compounds were evaluated according to BSP test. The BSP test is a method in which BSP (sulfobromophthalein sodium), a dye known to be quickly metabolized in and excreted from the liver, is intravenously injected into animals and, after a definite period of time, the blood is taken out to measure the amount of BSP remaining in the plasma. In case the animals are suffering from the liver damage, the dye will remain, according to the degree of the damage, at the stage where a major portion of BSP is metabolized and excreted in the case of normal animals.
Five groups of rats (Sprague Dawley strain) were treated as follows:
Group A: The rats were orally administered with 100 mg/kg of thioacetamide,at 3 days intervals for 36 days (12 times of the administration), then were submitted for 10 days to a normal diet.
Group B: The rats were orally administered with 100 mg/kg of thioacetamide at 3 days intervals for 36 days (12 times of the administration), then were submitted for 10 days to the normal diet + 0.2% of compound 4.
Group C: The rats were orally administered with 100 mg/kg of thioacetamide at 3 days intervals for 36 days (12 times of the administration) then were submitted for 10 days to the normal diet + 0.2% of compound 2.
Group D: The rats were orally administered with 100 mg/kg of thioacetamide at 3 days intervals for 36 days (12 times of the administration) then were submitted for 10 days to the normal diet + 0.2% of anethol trithion.
Group E: The rats were submitted to the normal diet as the control.
Five rats were sacrified from each group at appropriate intervals for BSP (sulfobromophthalein) test, the results of which were shown as amounts (mg) of BSP remaining in 1 dl of plasma.

[3] = tested on: acute liver damage associated with discrete lobular necrosis (D-galactosamine); experiment: Protective effect on acute hepatitis with mesenchymal reaction and discrete lobular necrosis (D-galactosamine model); assay type: in vivo, male rat (SD strain); details: 100 mg/kg oral 6 h before D-galactosamine
Protocol: D-Galactosamine is a compound which induces a discrete lobular necrosis associated with mesenchymal reaction similar to the change observed in human viral hepatitis, so that it is frequently used in producing a model for viral hepatitis.
The compound of this invention or anethol trithion was administered orally to the male rat (SD strain) at the dose of 100 mg/kg. Six hours after it, D-galacetosamine was intraperitoneally administered at the dose of 600 mg/kg. Four hours after it, an additional 300 mg/kg was administered intraperitoneally. Eight hours after it, the animals were sacrificed to collect the blood samples. P-GPT activity and triglyceride in the liver were measured to evaluate the effect of the compound of this invention.

[4] = tested on: bile flow and biliary salt; experiment: Cholagogic action: bile flow and excretion of biliary salt; assay type: in vivo, male rat (4 week-aged, SD-JCL strain); details: 200 mg/kg oral; for bile flow / excretion of biliary salt: before treatment = 100
Protocol: The male rat (4 week-aged, SD-JCL strain) was anesthetized with sodium pentobarbital (37.5 mg/kg, intraperitoneal injection). The abdominal cavity was opened through a midline incision. The common bile duct was catheterized with polyethylene tube o.d. 0.8 mm. The catheter was brought to the outside through the abdominal incision wound prior to closing. Bile was collected from the catheter continuously with time intervals of one hour. The quantity of bile produced in one hour was determined by weighing and that of biliary salt was determined by enzymatic method (Ikagaku Jikkenho Koza 1B, Biological Constituents II, edited by Tamio YAMAKAWA). The amount of biliary salts was represented as cholic acid equivalent.
In the representation of the results, the quantities of bile and biliary salts produced in one hour prior to the administration of drug were taken as 100. The compound of this invention was orally administered at the dose of 200 mg/kg. As reference anethol trithion was used.

[5] = Effect on concentration of ethyl alcohol in the blood; assay type: in vivo, mice; details: 250 mg/kg oral 6 h before ethyl alcohol 1,000 mg/kg
Protocol: The test compounds are dissolved or suspended in olive oil and administered orally at the dose of 250 mg/kg to the mice. After 6 hours, 1,000 mg/kg of ethyl alcohol was given orally. Blood was taken in a capillary from caudal vein at the time indicated in the results. The plasma was obtained by centrifugation. The concentration of ethyl alcohol in the plasma was measured by FID type gas liquid chromatography. Five mice were used for each group.

in vivo = details: mouse, po
[6] = tested on: fatty liver (carbon tetrachloride); experiment: Therapeutic effect on fatty liver (carbon tetrachloride model); assay type: in vivo, male rat (35 week-old, SD strain)
Protocol: Carbon tetrachloride also induces fatty liver, but the picture of disease differs from the case of ethionine-induced fatty liver. Carbon tetrachloride is generally considered to damage microsome and thereby to inhibit protein synthesis and induce fatty liver.
Carbon tetrachloride was subscutaneously administered to 35 week-old male rat (SD strain) for 4 days at the dose of 1 ml/kg. The treated animals were left for 3 days after the last administration to maximize the manifestation of fatty liver.
Administration of the compounds of this invention was commenced on the fourth day after the administration of carbon tetrachloride was completed. It was orally given everyday for 10 days at the dose of 50 or 250 mg/kg. On the 11th day, the animals were sacrificed. The therapeutic effect was evaluated by determining the content of lipid in the liver (triglyceride and total lipid) and examining the histopathological changes. Triglyceride and total lipid were determined colorimetrically by chromotropic acid method and Bragdon's oxidation method, respectively.
Indices for the histopathological change is as follows.

fatty liver (ethionine) = experiment: Effect on fatty liver (ethionine model); assay type: in vivo, male mice (4 week-old, dd-strain); details: diet plus 0.2% ethionine and 0.2% compound, 5 days
Source text: There are known many factors inducing fatty liver. But, the fatty liver is grouped into a couple of patterns from the mechanism of lipid accumulation or metabolism of lipoprotein in the liver. Ethionine is a typical compound inducing fatty liver. It inhibits RNA and protein syntheses and destructs polysome of the liver cell. Fatty liver is induced by the inhibition of protein synthesis and the disturbance of lipoprotein secretion.
Usually, fatty liver is closely related to the accumulation of triglyceride in the liver. In the present example, the degree of fatty liver and protective or therapeutic effect against the fatty liver was evaluted by measurement of triglyceride content in the liver.
The animals used in the test were 4 week-old male mice (dd-strain).
The mice were submitted for 5 days to a normal diet (control), to the normal diet plus 0.2% ethionine (positive control), to the normal diet plus 0.2% ethionine and 0.2% of the compound of this invention, or to the normal diet plus 0.2% ethionine and 0.2% methionine which was the referential diet. At the end of the period of 5 days, content of triglyceride in the liver was studied colorimetrically by chromotropic acid method and the result was represented as triolein content (mg/g-liver).

[7] = 50 mg/kg oral everyday for 10 days
[8] = 250 mg/kg oral everyday for 10 days

Structure (SMILES)	p-GPT (plasma glutamic-pyruvic transaminase activity) [1] [Karmen units]	Liver Damage Index [1]	Concentration of Ethyl alcohol in Plasma ([5]; 0 min) [ppm]	Concentration of Ethyl alcohol in Plasma ([5]; 5 min) [ppm]	Concentration of Ethyl alcohol in Plasma ([5]; 15 min) [ppm]	Concentration of Ethyl alcohol in Plasma ([5]; 30 min) [ppm]	Concentration of Ethyl alcohol in Plasma ([5]; 60 min) [ppm]	LD50 (in vivo) [mg/kg]	Triglyceride (content in the liver, as triolein) (fatty liver (ethionine)) [mg/g]	other results
CCOC(=O)C(C(=O)OCC)=C1SCCS1 [Compound 2, Diethyl 1,3-dithiolan-2-ylidene malonate]	47	0.8	8±3	712±75	65±98	422±100	15±8	1110		Concentration of BSP in plasma ([2]; 2 Days): 9.8 ± 3.1 mg/dL; Concentration of BSP in plasma ([2]; 5 Days): 4.7 ± 0.8 mg/dL; Concentration of BSP in plasma ([2]; 10 Days): 0.8 ± 0.2 mg/dL; Triglyceride in liver [3]: 7.2 ± 1.5 mg/g; p-GPT [3]: 68±32 Karmen unit; bile flow ([4]; 1 hour after treatment): 108±3.8; excretion of biliary salt ([4]; 1 hour after treatment): 108±18; bile flow ([4]; 2 hours after treatment): 116±6.2; excretion of biliary salt ([4]; 2 hours after treatment): 120±12; bile flow ([4]; 3 hours after treatment): 109±8.3; excretion of biliary salt ([4]; 3 hours after treatment): 133±18; bile flow ([4]; 4 hours after treatment): 108±8.5; excretion of biliary salt ([4]; 4 hours after treatment): 120±21; bile flow ([4]; 5 hours after treatment): 98±3.8; excretion of biliary salt ([4]; 5 hours after treatment): 86±8.9; Amount of total biliary salts excreted for 5 hours relative to control ([4]; versus control): 1.63 times; Quantity of total excreted bile for 5 hours relative to control ([4]; versus control): 1.15 times
CCOC(=O)C(C(=O)OC(C)C)=C1SCCS1 [Compound 21, Ethyl isopropyl 1,3-dithiolan-2-ylidene malonate]	64	0.6						2230		Triglyceride in liver [3]: 6.8 ± 1.2 mg/g; p-GPT [3]: 47±21 Karmen unit; Total lipid [6, 7]: 97.8 ± 10.3 mg/g-liver; Triglyceride [6, 7]: 40.6 ± 6.8 mg/g-liver; Total lipid [6, 8]: 70.2 ± 8.3 mg/g-liver; Triglyceride [6, 8]: 24.8 ± 3.2 mg/g-liver
CCOC(=O)C(C(=O)OC(C)CC)=C1SCCS1 (stereo not drawn) [Compound 22]	67	0.4							11.3 ± 0.96	
CCOC(=O)C(C(=O)SCC)=C1SCCS1 [Compound 26]	62	0.6	10±3	690±102	694±86	432±96	12±8			
CCOC(=O)C(C(=O)OCC)=C1SCC[S+]1[O-] (stereo not drawn) [Compound 30]	156	0.8							12.6 ± 2.3	
CC(C)OC(=O)C(C(=O)OC(C)C)=C1SCC[S+]1[O-] (stereo not drawn) [Compound 31, 2-(Diisopropoxycarbonyl)methyliden-1,3-dithiolan-1-oxide]	121	0.8	12±8	720±145	583±122	343±13	5±2	> 6000		
CSCC[C@H](N)C(=O)O [Methionine, methionine, reference compound]									13.2 ± 2.1	Total lipid [6, 8]: 168.6 ± 21.6 mg/g-liver; Triglyceride [6, 8]: 58.2 ± 9.6 mg/g-liver; Degree of fatty liver (histopathological examination) ([6]; 250 mg/kg oral, 10 days, one symbol per animal): + ± and ++ ++ ++ ±; therapeutic effect on fatty liver ([6]; carbon tetrachloride, in words): hardly exhibited a therapeutic effect
